The results in this text go back to patent publication US12187773B2, “Modified GIP peptide analogues” (Antag Therapeutics ApS, priority 2018, dated 2025).

Assay type in all cases: cell-based
Assay [1] addresses T1, human GIP receptor (Homo sapiens, UniProt P48546).
T1 sequence (P48546 22-466): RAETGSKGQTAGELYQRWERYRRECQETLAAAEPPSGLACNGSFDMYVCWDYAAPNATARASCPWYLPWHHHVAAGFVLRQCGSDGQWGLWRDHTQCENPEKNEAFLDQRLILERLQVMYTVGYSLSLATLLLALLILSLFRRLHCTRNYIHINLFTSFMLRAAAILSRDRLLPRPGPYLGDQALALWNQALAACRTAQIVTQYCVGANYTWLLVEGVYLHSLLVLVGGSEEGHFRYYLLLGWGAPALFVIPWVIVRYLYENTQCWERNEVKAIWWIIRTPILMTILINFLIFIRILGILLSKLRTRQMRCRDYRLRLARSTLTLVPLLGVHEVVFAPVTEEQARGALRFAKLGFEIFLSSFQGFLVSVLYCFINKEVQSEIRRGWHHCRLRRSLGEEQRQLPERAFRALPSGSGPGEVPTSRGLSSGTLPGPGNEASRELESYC
Briefly: cAMP agonism (CisBio cAMP Dynamic 2 HTRF assay). To be noted: HEK293, read-out: cAMP agonism, % Efficacy, Table 1C, HEK-293 cells. The procedure: To test for agonistic properties at the GIP receptor, compounds were diluted and added to cells as described above and incubated for 30 min at 37° C. The resulting increase in intracellular cAMP was determined using the CisBio cAMP Dynamic 2 HTRF Assay Kit as described above.
A general note: Time-resolved FRET reads energy transfer from a long-lived donor to a nearby acceptor.

Assay [2] concerns the target T2, GLP1 receptor (GLP1R) (Homo sapiens, UniProt P43220).
T2 construct: expressed in transfected cells; host or cells: COS-7 (transient)
Briefly: cAMP assay - selectivity, antagonism at GLP1 receptor. The note with it: Table 3A. The procedure:
(§1) Transient transfected COS-7 cells expressing the either of the GLP1 receptor (GLP1R), GLP2 receptor (GLP2R), glucagon receptor (GcgR) or secretin receptor (SCTR) were seeded in white 96-well plates with a density of 3.5*10^4/well. The day after, the cells were washed twice with Hepes buffered saline (HBS) buffer and incubated with HBS and 1 mM 3-isobutyl-1-methylxanthine (IBMX) for 30 min at 37° C. To test for agonistic properties, ligands were added and incubated for 30 min at 37° C. In order to test for antagonistic properties, the cells were preincubated with the antagonists for 10 min prior to the addition the natural agonist for the expressed receptor (GLP1 for GLP1R expressing cells, GLP2 for GLP2R expressing cells, glucagon for the GcgR and secretin for the SCTR) and subsequent incubated for 20 additional min. […] The HitHunter™ cAMP XS assay (DiscoveRx) was carried out according to the manufacturer's instructions.
(In general: Cyclic AMP is a second messenger, typically raised through Gs and lowered through Gi signalling.)

In assay [3] the target is T3, glucagon receptor (GcgR) (Homo sapiens, UniProt P47871).
T3 construct: expressed in transfected cells; host or cells: COS-7 (transient)
The experiment in a line: cAMP assay - selectivity, antagonism at glucagon receptor. The note with it: Table 3A; COS-7 cells; agonist glucagon at 50-80% of maximal cAMP. The procedure: as §1

The target of assay [4] is T4, GLP2 receptor (GLP2R) (Homo sapiens, UniProt O95838).
T4 construct: expressed in transfected cells; host or cells: COS-7 (transient)
T4 sequence (O95838 1-553): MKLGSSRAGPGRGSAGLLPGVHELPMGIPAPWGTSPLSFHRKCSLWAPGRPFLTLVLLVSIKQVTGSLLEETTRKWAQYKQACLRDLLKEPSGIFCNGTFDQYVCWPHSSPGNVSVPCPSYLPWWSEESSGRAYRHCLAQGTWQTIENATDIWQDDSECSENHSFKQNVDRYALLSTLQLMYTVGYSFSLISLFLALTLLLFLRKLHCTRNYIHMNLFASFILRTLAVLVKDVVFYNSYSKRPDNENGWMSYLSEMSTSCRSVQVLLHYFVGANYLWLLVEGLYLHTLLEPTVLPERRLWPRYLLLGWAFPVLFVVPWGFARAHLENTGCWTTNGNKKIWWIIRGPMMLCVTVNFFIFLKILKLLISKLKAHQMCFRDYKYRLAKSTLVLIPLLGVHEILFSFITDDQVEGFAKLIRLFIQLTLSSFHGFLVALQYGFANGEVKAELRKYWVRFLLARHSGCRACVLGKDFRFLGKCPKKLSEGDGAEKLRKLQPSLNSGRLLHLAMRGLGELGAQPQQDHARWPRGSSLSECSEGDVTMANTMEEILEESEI
Briefly: cAMP assay - selectivity, antagonism at GLP2 receptor. To be noted: Table 3B; COS-7 cells; agonist GLP2. The procedure: as §1

Assay [5] concerns the target T5, secretin receptor (SCTR) (Homo sapiens, UniProt P47872).
T5 construct: expressed in transfected cells; host or cells: COS-7 (transient)
Briefly: cAMP assay - selectivity, antagonism at secretin receptor. To be noted: Table 3B; COS-7 cells; agonist secretin. The procedure:
as §1

The target of assay [6] is T1, human GIP receptor. The experiment in a line: cAMP antagonism (CisBio cAMP Dynamic 2 HTRF assay). On the set-up: pCMV-Script vector. In short, it runs like this: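 Four-parameter fits of cAMP dose-response gave pIC50. cAMP fall was quantified by HTRF competition, ratio 665/620 nm after 60 min at room temperature, against a cAMP standard curve.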
Assay [7] concerns the target T1, human GIP receptor. The experiment in a line: cAMP accumulation, antagonism (DiscoveRx HitHunter cAMP XS assay). Further details: host or cells: COS-7 (transient, calcium phosphate; pCMV-Script vector). To be noted: cAMP antagonism, nM (IC50), Table 1B; DiscoveRx; transiently transfected COS-7 cells. In outline:
(§2)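 cAMP accumulation measured by HitHunter cAMP XS in COS-7 cells transiently expressing human GIP receptor, after 30 min in HBS with 1 mM IBMX at 37 °C. Antagonists preincubated 10 min before GIP giving 50-80% of maximum, then 20 min more; agonist mode used 30 min ligand exposure.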

Assay [8] has as its target T1, human GIP receptor. Briefly: cAMP accumulation, agonism (DiscoveRx HitHunter cAMP XS assay). Further details: host or cells: COS-7 (transient, calcium phosphate; pCMV-Script vector). To be noted: COS-7, read-out: cAMP agonism, Emax. In outline:
as §2

Molecules are shown by their SMILES. *1 amine or outer side, *2 acyl side, *3 side chain or, on linkers, in order; H or OH if unused. Where a SMILES comes first, the peptide text is derived from it. Side-chain parts run from the residue outwards. The star is where a group is joined. C16 diacid = O=C(O)CCCCCCCCCCCCCCC(=O)*; γGlu = O=C(O)[C@H](CCC(=O)[*:2])N[*:1]; AEEA = NCCOCCOCC(=O)O

T2 sequence (P43220 24-463, species assumed): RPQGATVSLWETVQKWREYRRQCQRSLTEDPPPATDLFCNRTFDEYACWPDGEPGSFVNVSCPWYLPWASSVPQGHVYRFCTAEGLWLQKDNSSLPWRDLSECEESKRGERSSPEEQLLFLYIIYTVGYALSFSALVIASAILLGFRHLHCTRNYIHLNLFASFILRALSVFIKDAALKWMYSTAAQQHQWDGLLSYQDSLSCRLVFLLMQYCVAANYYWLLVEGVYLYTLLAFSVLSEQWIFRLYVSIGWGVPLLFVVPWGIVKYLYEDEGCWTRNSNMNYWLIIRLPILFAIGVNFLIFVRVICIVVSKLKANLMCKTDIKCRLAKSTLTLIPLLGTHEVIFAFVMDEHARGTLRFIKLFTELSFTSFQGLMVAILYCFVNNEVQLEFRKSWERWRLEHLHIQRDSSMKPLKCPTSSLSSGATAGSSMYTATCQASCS
T3 sequence (P47871 26-477, species assumed): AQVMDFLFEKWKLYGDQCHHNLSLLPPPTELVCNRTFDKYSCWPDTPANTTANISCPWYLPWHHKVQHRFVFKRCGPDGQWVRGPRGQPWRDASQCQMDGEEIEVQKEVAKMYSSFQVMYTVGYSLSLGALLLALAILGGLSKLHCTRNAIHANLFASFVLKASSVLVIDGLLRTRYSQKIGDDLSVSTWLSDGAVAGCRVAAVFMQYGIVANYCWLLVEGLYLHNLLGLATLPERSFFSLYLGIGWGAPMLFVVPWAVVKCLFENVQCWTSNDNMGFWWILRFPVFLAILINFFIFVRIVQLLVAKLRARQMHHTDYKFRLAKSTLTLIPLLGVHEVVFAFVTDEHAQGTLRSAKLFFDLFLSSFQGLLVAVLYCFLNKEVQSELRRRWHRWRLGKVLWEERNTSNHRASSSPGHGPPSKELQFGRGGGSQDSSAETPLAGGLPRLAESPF
T5 sequence (P47872 23-440, species assumed): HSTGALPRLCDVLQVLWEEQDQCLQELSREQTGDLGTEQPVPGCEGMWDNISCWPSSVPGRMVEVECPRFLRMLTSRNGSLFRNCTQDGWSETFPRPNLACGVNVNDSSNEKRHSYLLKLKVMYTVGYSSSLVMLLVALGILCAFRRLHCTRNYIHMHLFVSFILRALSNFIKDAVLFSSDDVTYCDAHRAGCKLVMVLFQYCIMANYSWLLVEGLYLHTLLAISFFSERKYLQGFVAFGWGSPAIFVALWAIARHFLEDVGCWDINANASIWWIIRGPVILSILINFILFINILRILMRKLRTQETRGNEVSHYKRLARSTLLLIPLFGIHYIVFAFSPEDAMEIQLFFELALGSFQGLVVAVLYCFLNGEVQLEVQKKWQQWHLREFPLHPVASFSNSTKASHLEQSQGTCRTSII

`CC[C@H](C)[C@H](NC(=O)[C@H](CO)NC(=O)[C@H](Cc1ccc(O)cc1)NC(=O)[C@H](CC(=O)O)NC(=O)[C@H](CO)NC(=O)[C@@H](NC(=O)[C@H](Cc1ccccc1)NC(=O)[C@@H](NC(=O)CNC(=O)[C@@H](N)CO)[C@@H](C)O)[C@@H](C)CC)C(=O)N[C@@H](C)C(=O)N[C@@H](CCSC)C(=O)N[C@@H](CC(=O)O)C(=O)N[C@@H](CCCNC(=N)N)C(=O)N[C@H](C(=O)N[C@@H](CCCCNC(=O)COCCOCCNC(=O)COCCOCCNC(=O)CC[C@H](NC(=O)CCCCCCCCCCCCCCC(=O)O)C(=O)O)C(=O)N[C@@H](CCC(N)=O)C(=O)N[C@@H](CCC(N)=O)C(=O)N[C@@H](CC(=O)O)C(=O)N[C@@H](Cc1ccccc1)C(=O)N[C@H](C(=O)N[C@@H](CC(N)=O)C(=O)N[C@@H](Cc1c[nH]c2ccccc12)C(=O)N[C@@H](CC(C)C)C(=O)N[C@@H](CC(C)C)C(=O)N[C@@H](C)C(=O)N[C@@H](CCC(N)=O)C(=O)N[C@@H](CCCNC(=N)N)C(=O)O)C(C)C)[C@@H](C)CC` [AT277] (H-SGTFISDYSIAMDRIK([AEEA-AEEA-γGlu-C16 diacid])QQDFVNWLLAQR-OH; N-terminus assumed): the Emax in assay [1] was 8%; in assay [8] it was 9%. The “GLP-1R, Antagonism, %inhib” value in assay [2] (COS-7 cells) was determined as 68%. Moreover, the “GLP-1R, Antagonism, index” value in assay [2] (selectivity index versus GIPR) was 561. Besides, the “Glucagon R, Antagonism, nM” value in assay [3] is “No antagonism”. The “GLP-2R, Antagonism” value in assay [4] is on record as “No antagonism”. For the same compound, in assay [5], the “Secretin R, Antagonism” value is listed as “No antagonism”. Further, the IC50 (commonly the concentration needed to halve the response being measured) in assay [6] (GIPR, Antagonism, nM, Table 3C, CisBio assay) was 31.6 nM; in assay [6] (cAMP antagonism, nM (IC50), Table 1C, CisBio, HEK-293 cells, agonist GIP1-42 at EC50), 31.6 nM; in assay [7], 16 nM. Also, the “cAMP antagonism, % inhib” value in assay [6] (Table 1C, CisBio, HEK-293 cells) stood at 84%. For the same compound, the “GIPR, Antagonism, % inhib” value in assay [6] (Table 3C, CisBio assay) was 84%.
